Data reported in patent publication US4014876A, “Isoxazole derivatives” (Shionogi & Co., Ltd., priority 1969, dated 1977).

Key:
blood-sugar = experiment: Hypoglycemic activity in alloxan-treated rats (Blood-Sugar-Level, oral); assay type: in vivo, rat (alloxan-treated adult male); details: for Percentage of Blood-Sugar-Level (B.S.L.), 1 hr after / Percentage of Blood-Sugar-Level (B.S.L.), 3 hr after / Percentage of Blood-Sugar-Level (B.S.L.), 5 hr after: alloxan rats, change vs control; for Percentage of Blood-Sugar-Level (B.S.L.), Total: total of 1, 3 and 5 hr percentages
Description: Assay and control groups of rats were used, each group consisting of 5 adult male rats weighing 200 to 250 g and showing about 250 to 350 mg/dl-blood as the initial blood-sugar value, after being treated once with 50 mg/kg of alloxan (i.v.) one week before the assay. The assay and control groups were orally administered a 5 % gum arabic suspension with and without the test compound, respectively. Measurement of the absolute blood-sugar value was carried out thrice (i.e. 1 hour after, 3 hours after, and 5 hours after administration) and the values were compared with those of the control group. Blood-sugar values were determined by an assay technique using the marketed enzymatic glucose reagent: Glucostat (Trade Mark of Worthington Biochemical Corporation, Freehold, N.J., U.S.A.).
In effect, the marks + and -correspond to increasing and decreasing
tendency of B.S.L., respectively, after eliminating the difference in
value between the assay and control groups.

in vivo = details: mouse, oral, mice, 24 hours observation
Source text: For each dose 10 male mice were used, their body-weights ranging from 19 to 21 grams. […] The LD50 means the amount of the test compound being expected to kill just half the number of the animals treated.

Blood Free-Fatty-Acid = Blood Free-Fatty-Acid (B.F.F.A.) lowering activity in fasted rats (oral); assay type: in vivo, rat (male); details: 100 mg/kg p.o.; for B.F.F.A. Level, 1 hr after / B.F.F.A. Level, 3 hr after / B.F.F.A. Level, 5 hr after: fasted rats; for B.F.F.A. Level, Total: total of 1, 3 and 5 hr values
Description: Several groups of male rats weighing 200 to 250 g, each group consisting of 5 rats, were used in the test. Assay and control groups were fasted during 24 hours and then orally given 5 % gum arabic suspension with and without the test compound (100 mg/kg p.o.), respectively. All animals tested were decapitated 1 hour after, 3 hours after, or 5 hours after the treatment, and blood samples were drawn for B.F.F.A. value determination. A percentage factor, as B.F.F.A. Level, was determined according to the Itaya-Ui method [K. Itaya, et al.: J. Lipid Research, Vol. 6, 18 (1965)], calculated by the following equation: [formula] b) Result
B.F.F.A. Levels are shown in Table II, together with + and - marks and the total of the three values for each compound.

| Compound | Percentage of Blood-Sugar-Level (B.S.L.), 1 hr after (blood-sugar; 10 mg/kg dose) | Percentage of Blood-Sugar-Level (B.S.L.), 3 hr after (blood-sugar; 10 mg/kg dose) | Percentage of Blood-Sugar-Level (B.S.L.), 5 hr after (blood-sugar; 10 mg/kg dose) | Percentage of Blood-Sugar-Level (B.S.L.), Total (blood-sugar; 10 mg/kg dose) | Percentage of Blood-Sugar-Level (B.S.L.), 1 hr after (blood-sugar; 100 mg/kg dose) | Percentage of Blood-Sugar-Level (B.S.L.), 3 hr after (blood-sugar; 100 mg/kg dose) | Percentage of Blood-Sugar-Level (B.S.L.), 5 hr after (blood-sugar; 100 mg/kg dose) | Percentage of Blood-Sugar-Level (B.S.L.), Total (blood-sugar; 100 mg/kg dose) | LD50 at 24 h (in vivo) | B.F.F.A. Level, 1 hr after (Blood Free-Fatty-Acid) | B.F.F.A. Level, 3 hr after (Blood Free-Fatty-Acid) | B.F.F.A. Level, 5 hr after (Blood Free-Fatty-Acid) | B.F.F.A. Level, Total (Blood Free-Fatty-Acid) |
| --- | --- | --- | --- | --- | --- | --- | --- | --- | --- | --- | --- | --- | --- |
| CCc1cc(C(=O)NC(=O)NC(C)C)no1 [Compound 1, N'-i-propyl-N-(5-ethyl-3-isoxazolylcarbonyl)urea] | -8% | +2% | +2% | -4% | -54% | -63% | -43% | -160% | – | – | – | – | – |
| Cc1cc(C(=O)NC(=O)N(C)C)no1 [Compound 2, N',N'-dimethyl-N-(5-methyl-3-isoxazolylcarbonyl)urea] | -45% | -59% | -29% | – | -33% | -59% | -59% | -151% | – | – | – | – | – |
| Cc1cc(C(=O)NC(=N)N)no1 [Compound 3, 1-(5-methyl-3-isoxazolylcarbonyl)guanidine] | -11% | -39% | -32% | -82% | -30% | -56% | -52% | -138% | 2000 to 3000 mg/kg | -70% | -15% | -8% | -93% |
| CNC(=O)N(C)C(=O)c1cc(C)on1 [Compound 4, N,N'-dimethyl-N-(5-methyl-3-isoxazolylcarbonyl)urea] | -15% | -36% | -20% | -71% | -22% | -51% | -59% | -132% | – | – | – | – | – |
| Cc1cc(C(=O)N(C)C(=O)N(C)C)no1 [Compound 5, N,N',N'-trimethyl-N-(5-methyl-3-isoxazolylcarbonyl)urea] | -19% | -39% | -39% | -97% | -24% | -40% | -40% | -104% | – | – | – | – | – |
| CCCCNC(=O)NS(=O)(=O)c1ccc(C)cc1 [Compound 6, Tolbutamide, reference compound] | – | – | – | – | -9% | -26% | -23% | -58% | – | -40% | -45% | 0% | -85% |
| Cc1cc(C(=O)NC(=O)NC2CCCCC2)no1 [N'-cyclohexyl-N-(5-methyl-3-isoxazolylcarbonyl)urea] | – | – | – | – | – | – | – | – | – | -27% | -34% | -23% | -84% |
| Cc1cc(C(=O)NC(=O)NC(C)C)no1 [N'-i-propyl-N-(5-methyl-3-isoxazolylcarbonyl)urea] | – | – | – | – | – | – | – | – | 7000 to 8000 mg/kg | -75% | -67% | -49% | -191% |
| CCCCNC(=O)NC(=O)c1cc(C)on1 [N'-n-butyl-N-(5-methyl-3-isoxazolylcarbonyl)urea] | – | – | – | – | – | – | – | – | – | -59% | -59% | -30% | -129% |
| Cc1cc(C(=O)NC(N)=S)no1 [N-(5-methyl-3-isoxazolylcarbonyl)thiourea] | – | – | – | – | – | – | – | – | – | -60% | -36% | +13% | -83% |
| Cc1cc(C(=O)NC(N)=O)no1 [N-(5-methyl-3-isoxazolylcarbonyl)urea] | – | – | – | – | – | – | – | – | > 10000 mg/kg | – | – | – | – |
